# Measurements taken from US10392368B2, “Pyrazolo and triazolo bicyclic compounds as JAK kinase inhibitors” (THERAVANCE BIOPHARMA R&D IP, LLC, priority 2017, dated 2019).
# Where two headings read alike, the source gives them in different places.
# Legend:
# [1] = biological target: T1, JAK1 (Homo sapiens, UniProt P23458); assay: Biochemical JAK1 kinase assay (LanthaScreen); conditions: for Ki: read-out: JAK 1 (pKi) (converted)
# T1 construct: GST; purchased Life Technologies
# Summary of the method: (§1)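 GST-tagged JAK enzyme and GFP-STAT1 peptide preincubated with compound 1 h, then ATP added; 1 h kinase reaction at ambient temperature, pH 7.5 HEPES/MgCl2 buffer, 1% DMSO. Tb-anti-pSTAT1 (pTyr701) TR-FRET, 520/495 nm ratio; IC50 from 4-parameter fit, converted to pKi via Cheng-Prusoff.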
# [2] = biological target: T2, JAK2 (Homo sapiens, UniProt O60674); assay: Biochemical JAK2 kinase assay (LanthaScreen); conditions: for Ki: read-out: JAK 2 (pKi) (converted)
# T2 construct: GST; purchased Life Technologies
# Summary of the method: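 pKi values derive from pIC50 via Cheng-Prusoff, with IC50 from a 4-parameter fit of percent-inhibition TR-FRET data using Tb-anti-pSTAT1 (pTyr701) detection. Compound, GST-JAK2 and GFP-STAT1 substrate were pre-incubated 1 h, then ATP started a 1 h ambient reaction (HEPES pH 7.5, 10 mM MgCl2, 1% DMSO).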
# [3] = tested on: IL-2 stimulated pSTAT5 in Tall-1 T cells; assay: Cellular JAK3 potency assay: inhibition of IL-2 stimulated pSTAT5 in Tall-1 T cells; assay type: cell-based, human; conditions: for IC50: Homo sapiens, read-out: Tall-1 (pIC50) (converted)
# Summary of the method: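 Tall-1 human T cells were preincubated with compound for 1 h at 37° C, then stimulated with IL-2 (300 ng/ml final) for 30 min. STAT5 phosphorylation in lysates was read by AlphaLisa bead emission, and IC50 from inhibition curves is given as pIC50 (mean±SD).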
# [4] = biological target: T3, JAK3 (Homo sapiens, UniProt P52333); assay: Biochemical JAK3 kinase assay (LanthaScreen); design: GST; purchased Life Technologies; conditions: for Ki: read-out: JAK 3 (pKi) (converted)
# T3 sequence (P52333 1-1124): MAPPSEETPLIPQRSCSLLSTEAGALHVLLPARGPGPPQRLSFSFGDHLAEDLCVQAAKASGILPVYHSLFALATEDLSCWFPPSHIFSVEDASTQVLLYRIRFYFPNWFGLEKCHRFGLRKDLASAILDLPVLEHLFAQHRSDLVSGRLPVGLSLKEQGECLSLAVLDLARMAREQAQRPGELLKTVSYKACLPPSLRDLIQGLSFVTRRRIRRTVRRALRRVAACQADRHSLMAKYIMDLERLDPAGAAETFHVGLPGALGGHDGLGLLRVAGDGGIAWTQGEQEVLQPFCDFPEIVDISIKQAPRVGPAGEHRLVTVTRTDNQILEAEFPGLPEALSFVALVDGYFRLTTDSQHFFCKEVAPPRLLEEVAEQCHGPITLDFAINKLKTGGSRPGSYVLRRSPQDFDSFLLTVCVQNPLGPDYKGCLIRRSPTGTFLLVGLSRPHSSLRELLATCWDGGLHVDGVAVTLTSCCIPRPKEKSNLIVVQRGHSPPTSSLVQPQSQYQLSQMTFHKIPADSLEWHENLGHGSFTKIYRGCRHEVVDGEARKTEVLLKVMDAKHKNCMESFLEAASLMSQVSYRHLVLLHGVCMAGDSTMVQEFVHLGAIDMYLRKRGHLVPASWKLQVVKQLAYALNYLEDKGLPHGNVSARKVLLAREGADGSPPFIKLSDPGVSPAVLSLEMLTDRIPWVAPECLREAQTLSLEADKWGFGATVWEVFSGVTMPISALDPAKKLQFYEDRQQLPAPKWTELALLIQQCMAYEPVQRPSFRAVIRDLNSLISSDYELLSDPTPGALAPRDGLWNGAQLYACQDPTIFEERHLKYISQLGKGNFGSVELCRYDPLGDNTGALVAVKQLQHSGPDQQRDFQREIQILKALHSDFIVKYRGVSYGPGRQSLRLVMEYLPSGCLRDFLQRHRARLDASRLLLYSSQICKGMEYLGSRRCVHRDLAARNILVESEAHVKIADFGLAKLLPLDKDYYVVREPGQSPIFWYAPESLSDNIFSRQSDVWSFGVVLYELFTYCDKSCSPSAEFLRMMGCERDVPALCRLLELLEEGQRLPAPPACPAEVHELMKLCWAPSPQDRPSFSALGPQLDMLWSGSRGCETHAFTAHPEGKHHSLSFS
# Summary of the method: as §1
# [5] = biological target: T4, Tyk2 (Homo sapiens, UniProt P29597); assay: Biochemical Tyk2 kinase assay (LanthaScreen); conditions: for Ki: read-out: Tyk 2 (pKi) (converted)
# T4 construct: GST; purchased Life Technologies
# Summary of the method: as §1
# [6] = TALL-1, IL-2 stimulated pSTAT5, Tall-1 T cells
# [7] = selectivity JAK3 over JAK1, difference of pKi
# [8] = TALL-1, IL-2 stimulated pSTAT5 in Tall-1 T cells
# [9] = selectivity: difference of pKi JAK3 and pKi JAK1
# [10] = IL-2 stimulated pSTAT5, Tall-1 T cells
# [11] = IL-2 stimulated pSTAT5 in Tall-1 T cells
# T2 sequence (O60674 whole entry): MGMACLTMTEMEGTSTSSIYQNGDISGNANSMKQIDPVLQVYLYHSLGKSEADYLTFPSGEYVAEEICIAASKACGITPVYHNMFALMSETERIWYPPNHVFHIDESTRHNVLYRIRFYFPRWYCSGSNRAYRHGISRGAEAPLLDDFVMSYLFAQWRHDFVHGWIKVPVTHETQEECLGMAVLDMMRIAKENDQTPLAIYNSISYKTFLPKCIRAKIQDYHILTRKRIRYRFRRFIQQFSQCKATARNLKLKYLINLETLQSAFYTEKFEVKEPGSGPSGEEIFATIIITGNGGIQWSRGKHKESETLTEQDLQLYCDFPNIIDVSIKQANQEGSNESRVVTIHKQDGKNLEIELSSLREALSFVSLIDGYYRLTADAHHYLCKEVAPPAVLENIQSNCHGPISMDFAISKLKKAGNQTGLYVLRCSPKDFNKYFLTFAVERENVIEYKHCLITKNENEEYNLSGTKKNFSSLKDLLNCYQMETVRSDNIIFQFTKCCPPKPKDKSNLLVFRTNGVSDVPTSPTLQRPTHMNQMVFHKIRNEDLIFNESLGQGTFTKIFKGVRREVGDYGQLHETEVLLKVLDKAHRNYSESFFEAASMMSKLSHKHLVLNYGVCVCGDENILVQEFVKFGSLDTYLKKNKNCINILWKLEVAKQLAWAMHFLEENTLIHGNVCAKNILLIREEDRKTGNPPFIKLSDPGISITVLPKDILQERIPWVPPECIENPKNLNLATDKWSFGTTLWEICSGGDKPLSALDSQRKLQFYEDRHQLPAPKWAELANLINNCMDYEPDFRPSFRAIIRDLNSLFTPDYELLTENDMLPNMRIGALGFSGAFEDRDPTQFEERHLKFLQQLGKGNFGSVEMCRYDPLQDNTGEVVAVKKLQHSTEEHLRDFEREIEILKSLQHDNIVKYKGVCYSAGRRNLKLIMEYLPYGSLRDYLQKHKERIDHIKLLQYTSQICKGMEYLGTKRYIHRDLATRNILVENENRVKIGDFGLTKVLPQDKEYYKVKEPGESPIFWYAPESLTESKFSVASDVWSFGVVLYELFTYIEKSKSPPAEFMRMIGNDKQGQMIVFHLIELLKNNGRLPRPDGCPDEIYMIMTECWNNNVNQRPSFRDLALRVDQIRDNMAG
# T4 sequence (P29597 whole entry): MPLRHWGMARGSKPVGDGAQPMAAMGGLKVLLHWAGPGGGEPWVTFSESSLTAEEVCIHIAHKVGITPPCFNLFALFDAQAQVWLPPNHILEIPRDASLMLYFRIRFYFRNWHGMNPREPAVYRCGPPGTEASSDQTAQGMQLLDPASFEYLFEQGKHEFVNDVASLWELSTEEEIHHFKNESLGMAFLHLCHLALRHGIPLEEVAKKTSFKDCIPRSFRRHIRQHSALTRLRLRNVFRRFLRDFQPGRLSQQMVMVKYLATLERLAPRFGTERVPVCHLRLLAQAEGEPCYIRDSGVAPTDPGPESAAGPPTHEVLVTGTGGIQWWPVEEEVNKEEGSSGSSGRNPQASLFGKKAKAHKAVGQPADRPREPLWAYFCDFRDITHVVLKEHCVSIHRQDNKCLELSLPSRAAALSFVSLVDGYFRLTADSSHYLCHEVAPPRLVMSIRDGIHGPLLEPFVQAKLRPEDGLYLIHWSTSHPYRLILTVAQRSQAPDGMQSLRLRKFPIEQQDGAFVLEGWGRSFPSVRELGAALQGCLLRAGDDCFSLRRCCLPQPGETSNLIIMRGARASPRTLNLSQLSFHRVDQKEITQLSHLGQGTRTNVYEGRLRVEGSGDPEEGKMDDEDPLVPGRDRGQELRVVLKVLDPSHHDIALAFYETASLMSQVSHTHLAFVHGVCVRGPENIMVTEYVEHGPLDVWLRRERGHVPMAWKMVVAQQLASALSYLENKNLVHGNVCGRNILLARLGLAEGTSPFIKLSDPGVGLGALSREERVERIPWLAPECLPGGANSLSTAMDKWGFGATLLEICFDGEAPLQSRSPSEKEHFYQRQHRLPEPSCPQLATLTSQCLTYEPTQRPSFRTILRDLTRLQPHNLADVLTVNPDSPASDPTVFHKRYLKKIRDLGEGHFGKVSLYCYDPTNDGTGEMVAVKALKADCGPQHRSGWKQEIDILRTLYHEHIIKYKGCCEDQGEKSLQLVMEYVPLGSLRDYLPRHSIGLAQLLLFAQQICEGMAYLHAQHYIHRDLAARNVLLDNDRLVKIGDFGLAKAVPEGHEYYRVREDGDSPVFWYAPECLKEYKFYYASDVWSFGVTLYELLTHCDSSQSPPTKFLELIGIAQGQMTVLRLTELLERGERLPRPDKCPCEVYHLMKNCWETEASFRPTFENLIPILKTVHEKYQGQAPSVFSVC
# T1 sequence (P23458 whole entry): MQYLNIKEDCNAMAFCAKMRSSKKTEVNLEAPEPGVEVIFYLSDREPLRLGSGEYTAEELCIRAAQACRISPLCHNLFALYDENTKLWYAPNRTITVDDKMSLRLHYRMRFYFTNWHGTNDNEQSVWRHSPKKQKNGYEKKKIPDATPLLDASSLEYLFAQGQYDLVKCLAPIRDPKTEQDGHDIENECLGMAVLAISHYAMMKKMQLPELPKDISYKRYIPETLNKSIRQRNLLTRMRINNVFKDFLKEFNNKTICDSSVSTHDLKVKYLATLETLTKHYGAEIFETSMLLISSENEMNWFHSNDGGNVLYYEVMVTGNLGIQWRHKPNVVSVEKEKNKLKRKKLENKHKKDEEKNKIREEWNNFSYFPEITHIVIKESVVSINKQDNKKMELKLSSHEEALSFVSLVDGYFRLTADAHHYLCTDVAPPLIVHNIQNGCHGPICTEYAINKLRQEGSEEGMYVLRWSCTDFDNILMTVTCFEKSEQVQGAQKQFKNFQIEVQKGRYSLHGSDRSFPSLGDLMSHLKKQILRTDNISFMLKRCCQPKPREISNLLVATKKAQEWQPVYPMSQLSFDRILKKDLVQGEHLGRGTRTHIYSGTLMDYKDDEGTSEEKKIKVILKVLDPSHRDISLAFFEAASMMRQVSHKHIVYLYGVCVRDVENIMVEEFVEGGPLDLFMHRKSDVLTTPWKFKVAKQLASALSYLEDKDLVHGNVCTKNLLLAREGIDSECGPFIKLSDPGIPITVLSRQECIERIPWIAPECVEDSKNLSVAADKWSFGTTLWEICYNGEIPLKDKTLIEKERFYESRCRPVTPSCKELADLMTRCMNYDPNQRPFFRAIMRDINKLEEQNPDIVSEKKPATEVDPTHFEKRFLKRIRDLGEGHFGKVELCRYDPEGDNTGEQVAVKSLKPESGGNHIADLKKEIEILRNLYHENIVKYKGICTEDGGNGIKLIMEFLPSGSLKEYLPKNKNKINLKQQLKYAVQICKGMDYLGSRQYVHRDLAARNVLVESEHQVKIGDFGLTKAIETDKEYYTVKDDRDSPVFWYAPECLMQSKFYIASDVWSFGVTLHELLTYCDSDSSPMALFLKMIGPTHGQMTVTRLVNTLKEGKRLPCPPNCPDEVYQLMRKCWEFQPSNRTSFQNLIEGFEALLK
structure (smiles),measurement,setting,value
C=CC(=O)N1CCC(Oc2nc(-c3ccc(O)cc3)cc3[nH]ncc23)CC1 [Compound 6-15],Ki,[1],> 100 nM
same,Ki,[2],10 to 100 nM
same,IC50,[3]; [6],31.6 to 200 nM
same,Ki,[4],0.1 to 1 nM
same,JAK3 (pKi)-JAK1 (pKi),[4]; [7],A (a value of 3 or above)
same,Ki,[5],> 100 nM
C=CC(=O)N1CC(C(C)Oc2nc(-c3ccc(O)cc3)nc3[nH]ncc23)C1 (stereo not drawn) [Compound 3-77],Ki,[1],> 100 nM
same,Ki,[2],> 100 nM
same,IC50,[3]; [8],31.6 to 200 nM
same,Ki,[4],< 0.1 nM
same,JAK3 (pKi)-JAK1 (pKi),[4]; [9],A (a value of 3 or above)
same,Ki,[5],> 100 nM
CN(C/C=C/C(=O)N1CC(COc2cc(-c3ccc(O)cc3)cc3[nH]ncc23)C1)C1CCC1 [Compound 3-117],Ki,[1],> 100 nM
same,Ki,[2],10 to 100 nM
same,IC50,[3]; [8],31.6 to 200 nM
same,Ki,[4],0.1 to 1 nM
same,JAK3 (pKi)-JAK1 (pKi),[4]; [9],B (a value of 2.3 to 3)
same,Ki,[5],> 100 nM
C=CC(=O)N1CCC[C@H](Oc2cc(-c3ccc(O)c(Cl)c3)nc3[nH]ncc23)C1 [Compound 8-14],JAK 1 (pKi),[1],E (a pKi value of 7 or below (Ki of 100 nM or above))
same,JAK 2 (pKi),[2],E (a pKi value of 7 or below (Ki of 100 nM or above))
same,Tall-1 (pIC50),[3]; [10],B (a pIC50 value between 6.7 (included) and 7.5 (IC50 between 200 nM and 32 nM))
same,JAK 3 (pKi),[4],A (a pKi value≥10 (Ki≤0.1 nM))
same,JAK3 (pKi)-JAK1 (pKi),[4]; [7],A (a value of 3 or above)
same,Tyk 2 (pKi),[5],E (a pKi value of 7 or below (Ki of 100 nM or above))
CN(C)C/C=C/C(=O)N1CC(F)(COc2cc(-c3ccc(O)c(Cl)c3)cc3[nH]ncc23)C1 [Compound 3-42],Ki,[1],0.1 to 1 nM
same,Ki,[2],10 to 100 nM
same,IC50,[3]; [8],< 31.6 nM
same,Ki,[4],0.1 to 1 nM
same,JAK3 (pKi)-JAK1 (pKi),[4]; [9],B (a value of 2.3 to 3)
same,Ki,[5],> 100 nM
C=CC(=O)N1CC(F)(COc2nc(-c3ccc(O)cc3)nc3[nH]ncc23)C1 [Compound 3-45],Ki,[1],> 100 nM
same,Ki,[2],> 100 nM
same,IC50,[3]; [8],< 31.6 nM
same,Ki,[4],0.1 to 1 nM
same,JAK3 (pKi)-JAK1 (pKi),[4]; [9],A (a value of 3 or above)
same,Ki,[5],> 100 nM
CN(C)C/C=C/C(=O)N1CCC(C)(Oc2cc(-c3ccc(O)c(F)c3)cc3[nH]ncc23)CC1 [Compound 6-6],Ki,[1],> 100 nM
same,Ki,[2],10 to 100 nM
same,IC50,[3]; [6],< 31.6 nM
same,Ki,[4],0.1 to 1 nM
same,JAK3 (pKi)-JAK1 (pKi),[4]; [7],A (a value of 3 or above)
same,Ki,[5],> 100 nM
C=CC(=O)N1CC(CC)(COc2nc(-c3ccc(O)cc3)cc3[nH]ncc23)C1 [Compound 3-62],JAK 1 (pKi),[1],E (a pKi value of 7 or below (Ki of 100 nM or above))
same,JAK 2 (pKi),[2],D (a pKi value between 7 and 8 (Ki between 100 nM and 10 nM))
same,Tall-1 (pIC50),[3]; [11],A (a pIC50 value≥7.5 (IC50≤32 nM))
same,JAK 3 (pKi),[4],B (a pKi value between 9 and 10 (Ki between 1 nM and 0.1 nM))
same,JAK3 (pKi)-JAK1 (pKi),[4]; [9],A (a value of 3 or above)
same,Tyk 2 (pKi),[5],E (a pKi value of 7 or below (Ki of 100 nM or above))
CN(C)C/C=C/C(=O)N1CC(COc2cc(-c3ccc(O)cc3)cc3[nH]nc(C(F)(F)F)c23)C1 [Compound 18-12],Ki,[1],10 to 100 nM
same,Ki,[2],10 to 100 nM
same,IC50,[3]; [6],31.6 to 200 nM
same,Ki,[4],0.1 to 1 nM
same,JAK3 (pKi)-JAK1 (pKi),[4]; [7],B (a value of 2.3 to 3)
same,Ki,[5],> 100 nM
C=C(CN(C)C)C(=O)N1CC(COc2cc(-c3ccc(O)cc3)nc3[nH]ncc23)C1 [Compound 3-79],Ki,[1],> 100 nM
same,Ki,[2],> 100 nM
same,IC50,[3]; [8],31.6 to 200 nM
same,Ki,[4],0.1 to 1 nM
same,JAK3 (pKi)-JAK1 (pKi),[4]; [9],A (a value of 3 or above)
same,Ki,[5],> 100 nM
C=CC(=O)N1CC(COc2cc(-c3ccc(O)cc3)cc3[nH]ncc23)C1C (stereo not drawn) [Compound 3-114],JAK 1 (pKi),[1],E (a pKi value of 7 or below (Ki of 100 nM or above))
same,JAK 2 (pKi),[2],E (a pKi value of 7 or below (Ki of 100 nM or above))
same,Tall-1 (pIC50),[3]; [11],A (a pIC50 value≥7.5 (IC50≤32 nM))
same,JAK 3 (pKi),[4],B (a pKi value between 9 and 10 (Ki between 1 nM and 0.1 nM))
same,JAK3 (pKi)-JAK1 (pKi),[4]; [9],A (a value of 3 or above)
same,Tyk 2 (pKi),[5],E (a pKi value of 7 or below (Ki of 100 nM or above))
C=C(CN(C)C)C(=O)N1CC(COc2nc(-c3ccc(O)c(Cl)c3)nc3[nH]ncc23)C1 [Compound 3-60],JAK 1 (pKi),[1],E (a pKi value of 7 or below (Ki of 100 nM or above))
same,JAK 2 (pKi),[2],E (a pKi value of 7 or below (Ki of 100 nM or above))
same,Tall-1 (pIC50),[3]; [11],B (a pIC50 value between 6.7 (included) and 7.5 (IC50 between 200 nM and 32 nM))
same,JAK 3 (pKi),[4],A (a pKi value≥10 (Ki≤0.1 nM))
same,JAK3 (pKi)-JAK1 (pKi),[4]; [9],A (a value of 3 or above)
same,Tyk 2 (pKi),[5],E (a pKi value of 7 or below (Ki of 100 nM or above))
C=CC(=O)N1CC[C@@H](Oc2nc(-c3ccc(O)cc3)nc3[nH]ncc23)C[C@H]1C [Compound 13-10],JAK 1 (pKi),[1],E (a pKi value of 7 or below (Ki of 100 nM or above))
same,JAK 2 (pKi),[2],E (a pKi value of 7 or below (Ki of 100 nM or above))
same,Tall-1 (pIC50),[3]; [10],B (a pIC50 value between 6.7 (included) and 7.5 (IC50 between 200 nM and 32 nM))
same,JAK 3 (pKi),[4],B (a pKi value between 9 and 10 (Ki between 1 nM and 0.1 nM))
same,JAK3 (pKi)-JAK1 (pKi),[4]; [7],A (a value of 3 or above)
same,Tyk 2 (pKi),[5],E (a pKi value of 7 or below (Ki of 100 nM or above))
CN(C)C/C=C/C(=O)N1CC(Oc2cc(-c3ccc(O)c(Cl)c3)cc3[nH]ncc23)C1 [Compound 5-3],JAK 1 (pKi),[1],E (a pKi value of 7 or below (Ki of 100 nM or above))
same,JAK 2 (pKi),[2],E (a pKi value of 7 or below (Ki of 100 nM or above))
same,Tall-1 (pIC50),[3]; [11],A (a pIC50 value≥7.5 (IC50≤32 nM))
same,JAK 3 (pKi),[4],A (a pKi value≥10 (Ki≤0.1 nM))
same,JAK3 (pKi)-JAK1 (pKi),[4]; [9],A (a value of 3 or above)
same,Tyk 2 (pKi),[5],E (a pKi value of 7 or below (Ki of 100 nM or above))
C=CC(=O)N1CC(C#N)(COc2nc(-c3ccc(O)c(Cl)c3)nc3[nH]ncc23)C1 [Compound 3-109],Ki,[1],> 100 nM
same,Ki,[2],> 100 nM
same,IC50,[3]; [8],31.6 to 200 nM
same,Ki,[4],0.1 to 1 nM
same,JAK3 (pKi)-JAK1 (pKi),[4]; [9],A (a value of 3 or above)
same,Ki,[5],> 100 nM
